From patent US7678368B2, “Fucoidan-containing cosmetics” (Takara Bio Inc., priority 1999, dated 2010)

Assays:
C3H/He mice [1] = test: Trichogenous ratio, Fucoidan Bf combined with carpronium chloride or minoxidil (Example 19); type: in vivo, mouse; details: for Trichogenous Ratio (%) (Trichogenous Area/Shaved Area): 200 μL once a day, 6 cases; for Trichogenous Ratio (%) (Trichogenous Area/Shaved Area) / Number of Individuals with Trichogenous Ratio of 60% or More: twenty-first day after shaving
Procedure: Male C3H/He mice were purchased from Nippon SLC and used for an experiment from 8 week-old after pre-breeding the mice. The hair on the backside of each mouse was cut with hair clippers, and thereafter shaved with a razor. […] The resulting ethanol solution was applied onto the above hair-cut site of the backside of the mice in an amount of 200 μL per mouse. To the control group, 30% ethanol solution was similarly applied. The mice were administered once a day, for consecutive days. The administered sites were observed over the passage of time from the day of the beginning of administration (the day following the shaving), and the trichogenous area was determined on the twenty-first day after shaving and expressed as the ratio (%) to the shaved area.

[2] = system: whiskers with the hair follicles of C3H/He mice; test: Culture of mouse whiskers with hair follicles, length of grown whisker (Examples 15-18); type: cell-based; details: whiskers of 6 day-old mice (Table 14)
Excerpt: (1) Two day-old male C3H/He mice were purchased from Nippon SLC together with the mother mice and used for an experiment from 5 day-old. The mice were sacrificed by exsanguination, and the whiskers together with the subcutaneous tissues were collected using scissors and tweezers. Further, the whiskers with the hair follicles were separated in a petri dish under the microscope according to the method by Ogawa et al. (J. Invest. Dermatol 103: 306-309, 1994). Fourteen to sixteen whiskers were collected from the right and left sides per mouse. […] Here, the given concentrations of each sample added are respectively expressed as the concentration per mL medium (mg/mL) in Table 10. […] The length of whisker was determined to the order of 0.1 mm before the beginning and after the termination of the culture under the microscope using a caliper. […] In addition, Student's t-test was used for test of significance, and P value was determined against the control group. […] The hair restoring effects for the fucoidan derived from Kjellmaniella crassifolia described in item (1) of Example 1 and 7-12SFd-F described in item (3) of Example 2 were evaluated in the same manner as in item (1) of Example 15. […] The hair restoring effects for Fucoidan Bf described in item (1) of Example 16 and F-rich fucoidan described in item (2) of Example 16 were evaluated in the same manner as in item (1) of Example 15. […]

C3H/He mice [3] = test: Hair restoring effect of sulfated monosaccharides, scoring as in Example 13(3) (Example 14(2)); type: in vivo, mouse; details: 3% in 50% ethanol, 200 μL once a day, score 0-4
Procedure: The administered site was observed over the passage of time from the beginning of administration, and a change in the skin color tone was evaluated by scoring. Specifically, the scoring criteria were defined as follows: Score 0: no change in the skin color, Score 1: the skin color being changed to blue, Score 2: the skin color being changed to black-blue to gray, Score 3: trichogenous state being observed, and Score 4: the state before the hair cutting being almost restored. (3) Male C3H/He mice were purchased from Nippon SLC and used for an experiment from 8 week-old after pre-breeding the mice. The hair on the backside of each mouse was cut with hair clippers, and thereafter shaved with a razor. (2) The hair restoring effect of the sulfated glucose prepared in item (1) of Example 14 was studied in the same manner as in item (3) of Example 13. Here, the sulfated glucose was dissolved in 50% ethanol in a concentration of 3%, and the resulting solution was applied onto the backside of the mice once a day in an amount of 200 μL per mouse. To the control group, 50% ethanol alone was applied. […] In addition, similar tests were carried out for the sulfated fucose, the sulfated mannose, the sulfated galactose, the sulfated xylose, the sulfated 2-deoxy-glucose and the sulfated talose.

## COC(=O)CCC[N+](C)(C)C.[Cl-] [Carpronium Chloride, carpronium chloride]
C3H/He mice [1]; 0.5% in 30% ethanol
  Trichogenous Ratio (%) (Trichogenous Area/Shaved Area): 23.9 ± 4.9%
  Number of Individuals with Trichogenous Ratio of 60% or More: 0/6
C3H/He mice [1]; administration by application alone (0.5%)
  hair restoring effect: No hair restoring effect

## Nc1cc(N2CCCCC2)nc(N)[n+]1[O-] [Minoxidil, minoxidil]
C3H/He mice [1]; 0.1% in 30% ethanol
  Trichogenous Ratio (%) (Trichogenous Area/Shaved Area): 42.9 ± 5.5%
  Number of Individuals with Trichogenous Ratio of 60% or More: 1/6
C3H/He mice [1]; 1% in 30% ethanol
  Trichogenous Ratio (%) (Trichogenous Area/Shaved Area): 69.1 ± 13.9%
  Number of Individuals with Trichogenous Ratio of 60% or More: 4/6

## sulfated (—SO3—Na^+) D-(+)-glucose [Sulfated Glucose]
[2]; 0.1 mg/mL
  Length of Grown Whisker (mm) (Average Value ± Standard Error): 0.39 ± 0.11 mm
[2]; 1 mg/mL
  Length of Grown Whisker (mm) (Average Value ± Standard Error): 1.31 ± 0.31 mm
C3H/He mice [3]; duration of administration 11 days
  Average Score: 0.6
C3H/He mice [3]; duration of administration 12 days
  Average Score: 0.6
C3H/He mice [3]; duration of administration 13 days
  Average Score: 1.0
C3H/He mice [3]; duration of administration 14 days
  Average Score: 1.6
C3H/He mice [3]; duration of administration 15 days
  Average Score: 1.8
